The source of these data is patent US20250345345A1, “METHODS FOR THE TREATMENT OF NEUROLOGICAL DISORDERS” (Praxis Precision Medicines, Inc., priority 2022, published 2025).

Molecules are shown by their SMILES.

For data set [1] the following is noted: evening versus morning administration; as disclosed in WO 2022/232104; cited from earlier work.
The subject of data set [2] is PTZ-evoked seizures in CD-1 male mice. Put plainly: PTZ acute seizure model, combination of Compound 1 with Compound A (Example 2). To be noted: 30 minutes before PTZ 120 mg/kg s.c., n=12. In kind it is in vivo. Here is the method: The combination of Compound 1 with Compound A for the treatment of seizures was investigated using a PTZ acute seizure model. Accordingly, the effect on PTZ-evoked seizures was evaluated for a vehicle control, Compound A alone, Compound 1 alone, and a combination of Compound 1 and Compound A.
Six-week old CD-1 male mice (25-35 g) were used in the following experiment. Study groups (n=12 for each group) were as follows: • (1) 35% 2-hydroxypropyl-beta-cyclodextrin (HPBCD), the vehicle for Compound 1 and Compound A (10 ml/kg, p.o.); • (2) Compound A (1 mg/kg, p.o.); • (3) Compound A (3 mg/kg, p.o.); • (4) Compound A (6 mg/kg, p.o.); • (5) Compound A (10 mg/kg, p.o); • (6) Compound 1 (10 mg/kg, p.o.); and • (7) Compound A (1 mg/kg, p.o.) and Compound 1 (10 mg/kg, p.o.).
In each instance, 30 minutes after administration of the vehicle or compound(s), PTZ was administered at 120 mg/kg, s.c., 10 ml/kg.
Dosing solutions were made from stock solutions of the highest dose and diluted down for the lower doses. All solutions were protected from light and made fresh daily for two experiment days. […]
Latency and total numbers of clonic/tonic seizures were recorded for 30 minutes, and latency to death was also recorded up to 30 minutes. […] The latency and number of seizures for each mouse was recorded by an individual blinded to the treatment. […]

For data set [3] the following is noted: evening versus morning dosing; Khodadoustan et al. 2017; cited from earlier work.

Turning to `COC[C@@]1(O)CC[C@@]2(C)[C@@H](CC[C@@H]3[C@@H]2CC[C@]2(C)[C@@H](C(=O)Cn4ccnc4)CC[C@@H]32)C1` [Compound 1, 3α-Hydroxy-3β-methoxymethyl-21-(1′-imidazolyl)-5α-pregnan-20-one], in data set [1], the “maximum observed plasma concentration (Cmax), evening compared to morning administration” value is given as “reduces”; the “overall drug exposure (AUCinf), evening compared to morning administration” value is reported as “similar”; the “time to maximum plasma concentration (tmax), evening compared to morning administration” value is on record as “increases”. The “seizure-free mice of the twelve mice” value in data set [2] (Compound 1 10 mg/kg p.o. alone, n.s. versus combination) is 3.
Consider `CCOC(F)(F)c1nnc2ccc(-c3cnc(OCC(F)(F)F)c(F)c3)cn12` [Compound A], for which the “seizure-free mice of the twelve mice” value in data set [2] (Compound A 1 mg/kg p.o. alone, p<0.01 versus combination) is listed as “none”.
Take `CCOC(=O)C1=C(COCCN)NC(C)=C(C(=O)OC)C1c1ccccc1Cl` (stereo not shown) [amlodipine besylate]: in data set [3], the “Cmax, evening administration compared to morning dosing” value was “increased” and the “Tmax, evening administration compared to morning dosing” value is “reduced”.
